Source: patent US20090143279A1 (priority 2007, published 2009)
Read-outs that look alike come from different tables or passages of the source.

Legend:
[1] = system: reactive oxygen species; format: cell-based, mouse; settings: for ROS (composite Z-score): normalized score vs mock-treated (DMSO) wells
[2] = system: C2C12 myotubes; settings: for Viability (composite Z-score): normalized score vs mock-treated (DMSO) wells
[3] = system: mtOXPHOS transcripts; format: cell-based, mouse; settings: for mitoOX (composite Z-score): normalized score vs mock-treated (DMSO) wells
[4] = system: nuOXPHOS transcripts; format: cell-based, mouse; settings: for nucOX (composite Z-score): normalized score vs mock-treated (DMSO) wells
[5] = system: cellular dehydrogenase activity; settings: for MTT (composite Z-score): normalized score vs mock-treated (DMSO) wells
[6] = system: OXPHOS gene expression; format: cell-based, mouse; settings: for GE-HTS (composite Z-score): normalized score vs mock-treated (DMSO) wells
[7] = system: cytochrome c; format: cell-based, mouse; settings: for cyt c (composite Z-score): normalized score vs mock-treated (DMSO) wells
[8] = system: mitochondrial membrane potential; format: cell-based, mouse; settings: for ΔΨm (composite Z-score): normalized score vs mock-treated (DMSO) wells
[9] = normalized composite Z-score vs mock-treated (DMSO) wells, Conc 20 μM
[10] = 20 μM, composite Z-score vs DMSO
[11] = composite Z-score vs DMSO, Conc 20 μM
[12] = composite Z-score vs DMSO, Conc 8.94 μM

Compound: COc1ccc2c(c1)OC/C(=C/c1ccc(OC)c(OC)c1)C2=O [sappanone A trimethyl ether]
- ROS (composite Z-score) ([1]; Conc 20 μM): 0.120
- Viability (composite Z-score) ([2]; Conc 20 μM): −0.259
- mitoOX (composite Z-score) ([3]; Conc 20 μM): 0.094
- nucOX (composite Z-score) ([4]; Conc 20 μM): 1.458
- MTT (composite Z-score) ([5]; Conc 20 μM): −0.980
- GE-HTS (composite Z-score) ([6]; Conc 20 μM): 1.090
- cyt c (composite Z-score) ([7]; Conc 20 μM): −0.471
- ΔΨm (composite Z-score) ([8]; Conc 20 μM): −0.290

Compound: C[C@]12CC[C@H](O)C[C@H]1CC[C@@H]1[C@@H]2[C@H](O)C[C@]2(C)[C@@H](C3=CC(=O)OC3)CC[C@]12O [sarmentogenin]
- ROS [1, 9]: −0.151
- Viability [2, 9]: 0.694
- mitoOX [3, 9]: 0.077
- nucOX [4, 9]: 0.691
- MTT [5, 9]: −0.191
- GE-HTS [6, 9]: 0.508
- cyt c [7, 9]: 0.614
- ΔΨm [8, 9]: −0.354

Compound: COc1cc2ccc(=O)oc2cc1O [scopoletin]
- ROS [1]: −0.017
- ROS [1, 10]: 0.727
- Viability [2]: 0.413
- Viability [2, 10]: 0.675
- mitoOX [3]: −0.291
- mitoOX [3, 10]: 0.101
- nucOX [4]: −0.513
- nucOX [4, 10]: 0.746
- MTT [5]: 0.261
- MTT [5, 10]: −0.957
- GE-HTS [6]: −0.462
- GE-HTS [6, 10]: 0.543
- cyt c [7]: 0.501
- cyt c [7, 10]: 0.928
- ΔΨm [8]: 0.146
- ΔΨm [8, 10]: −0.056

Compound: C/C=C(/C)C(=O)O[C@H]1Cc2c(ccc3ccc(=O)oc23)OC1(C)C [selinidin]
- ROS (composite Z-score) ([1]; Conc 20 μM): 0.838
- Viability (composite Z-score) ([2]; Conc 20 μM): 0.773
- mitoOX (composite Z-score) ([3]; Conc 20 μM): −0.285
- nucOX (composite Z-score) ([4]; Conc 20 μM): −0.328
- MTT (composite Z-score) ([5]; Conc 20 μM): −0.359
- GE-HTS (composite Z-score) ([6]; Conc 20 μM): −0.347
- cyt c (composite Z-score) ([7]; Conc 20 μM): −0.478
- ΔΨm (composite Z-score) ([8]; Conc 20 μM): 0.013

Compound: O=C(O)c1cc(O)c2c(c1)[C@H]([C@H]1c3cc(C(=O)O)cc(O)c3C(=O)c3c(O[C@@H]4O[C@H](CO)[C@@H](O)[C@H](O)[C@H]4O)cccc31)c1cccc(O[C@@H]3O[C@H](CO)[C@@H](O)[C@H](O)[C@H]3O)c1C2=O [sennoside A]
- ROS [1, 11]: 0.137
- Viability [2, 11]: 0.602
- mitoOX [3, 11]: −1.628
- nucOX [4, 11]: −1.093
- MTT [5, 11]: −0.769
- GE-HTS [6, 11]: −1.374
- cyt c [7, 11]: 0.362
- ΔΨm [8, 11]: −0.640

Compound: CC(C)=CCc1c2c(c(O)c3c(=O)c(O)c(-c4ccccc4)oc13)C=CC(C)(C)O2 [sericetin]
- ROS [1, 9]: 0.124
- Viability [2, 9]: −0.783
- mitoOX [3, 9]: −1.132
- nucOX [4, 9]: −0.670
- MTT [5, 9]: −1.507
- GE-HTS [6, 9]: −0.890
- cyt c [7, 9]: −0.335
- ΔΨm [8, 9]: 6.788

Compound: CN[C@H]1CC[C@@H](c2ccc(Cl)c(Cl)c2)c2ccccc21 [sertraline]
- ROS [1]: 0.090
- Viability [2]: 0.279
- mitoOX [3]: 0.020
- nucOX [4]: −1.476
- MTT [5]: −1.905
- GE-HTS [6]: −1.068
- cyt c [7]: −1.121
- ΔΨm [8]: 0.420

Compound: COc1cc(/C=C/C(=O)O)cc(OC)c1OC [sinapic acid methyl ether]
- ROS [1]: 0.722
- Viability [2]: −0.934
- mitoOX [3]: −1.015
- nucOX [4]: −1.058
- MTT [5]: −0.736
- GE-HTS [6]: −1.103
- cyt c [7]: 0.207
- ΔΨm [8]: −0.716

Compound: COC1=C[C@@H]2[C@@H]3Cc4ccc(OC)c(O)c4[C@]2(CCN3C)CC1=O [sinomenine]
- ROS [1, 11]: 0.777
- Viability [2, 11]: −0.937
- mitoOX [3, 11]: −1.253
- nucOX [4, 11]: −0.565
- MTT [5, 11]: −1.489
- GE-HTS [6, 11]: −0.875
- cyt c [7, 11]: −0.117
- ΔΨm [8, 11]: −0.657

Compound: CN[C@@H]1[C@@H](O)[C@@H](O[C@@H]2[C@@H](O)[C@H](O[C@H]3OC(CN)=CC[C@H]3N)[C@@H](N)C[C@H]2N)OC[C@]1(C)O [sisomicin]
- ROS [1, 12]: 1.889
- Viability [2, 12]: −0.274
- mitoOX [3, 12]: −0.588
- nucOX [4, 12]: −0.337
- MTT [5, 12]: −1.515
- GE-HTS [6, 12]: −0.448
- cyt c [7, 12]: 0.746
- ΔΨm [8, 12]: −0.962

Compound: CC[C@H](CC[C@@H](C)[C@H]1CC[C@H]2[C@@H]3CC=C4C[C@@H](OC(C)=O)CC[C@]4(C)[C@H]3CC[C@]12C)C(C)C [sitosteryl acetate]
- ROS [1, 9]: 0.930
- Viability [2, 9]: −0.827
- mitoOX [3, 9]: 0.180
- nucOX [4, 9]: −0.389
- MTT [5, 9]: −0.775
- GE-HTS [6, 9]: −0.233
- cyt c [7, 9]: −0.443
- ΔΨm [8, 9]: −0.192

Compound: O=C(O)CF [sodium fluoroacetate]
- ROS [1, 11]: 0.613
- Viability [2, 11]: −0.906
- mitoOX [3, 11]: −0.459
- nucOX [4, 11]: 0.206
- MTT [5, 11]: −1.379
- GE-HTS [6, 11]: −0.009
- cyt c [7, 11]: 0.653
- ΔΨm [8, 11]: −0.784
